Measurements as given in patent publication US20220296480A1, “TOPICAL COMPOSITIONS” (DSM IP ASSETS B.V., priority 2019, published 2022).

System: A. brasiliensis
Experiment: Preservation challenge test of inoculated O/W emulsion (ISO 11930)
Format: cell-based, Aspergillus brasiliensis
Settings: stored 22.5±2.5° C
Description: The evaluation of the preservation of a cosmetic formulation is based on inoculation of the formulation as outlined in table 1 with calibrated inocula (prepared from relevant strains of micro-organisms). Therefore, to each formulation 0.2 ml of calibrated inoculum is added to obtain between 1×10^2 cfu/ml and 1×10^6 cfu/ml or g of A. brasiliensis in the formulation (final concentration), which is mixed thoroughly into the formulation to ensure a homogeneous distribution of the inoculum. Then the respective containers containing the inoculated formulations are stored @22.5±2.5° C. At each specified sampling interval (initial (T0), 7 days (T7) and 28 days ([…])) 1 g of the inoculated formulation is taken and a dilution prepared to perform the enumeration of surviving micro-organisms. Then, for each time and each strain/strain mixture, the average log value is calculated which is represented in tables 2 and 3. (Procedure: see ISO 11930, chapter 5.2.-5.6.3.4. (page 3-13)) [table]

[1] = ERY 0.1 wt.-%, HG & EHG 0.9 wt.-%, time 0 days (T0)
[2] = ERY 0.1 wt.-%, HG & EHG 0.9 wt.-%, time 7 days (T7)
[3] = ERY 0.4 wt.-%, HG & EHG 0.6 wt.-%, time 0 days (T0)
[4] = ERY 0.4 wt.-%, HG & EHG 0.6 wt.-%, time 7 days (T7)

SMILES | Average log [cfu/ml] [1] | Average log [cfu/ml] [2] | Average log [cfu/ml] [3] | Average log [cfu/ml] [4] | Average log [cfu/ml] (ERY 0.1 wt.-%, HG & EHG 0.9 wt.-%, time 28 days (T28)) | Average log [cfu/ml] (ERY 0.4 wt.-%, HG & EHG 0.6 wt.-%, time 28 days (T28))
O=C(CO)[C@H](O)CO (racemic) [ERY, Erythrulose] | 1.8 log [cfu/ml] | 3.5 log [cfu/ml] | 2.0 log [cfu/ml] | 2.9 log [cfu/ml] | – | –
CCCCC(CC)COCC(O)CO (stereo not shown) [EHG, Ethylhexyl glycerine] | 4.6 log [cfu/ml] | 4.2 log [cfu/ml] | 4.6 log [cfu/ml] | 4.4 log [cfu/ml] | 4.5 log [cfu/ml] | 4.6 log [cfu/ml]
